Laboratory results as given in patent publication US9523081B2, “Method for enhancing therapeutic effect of stem cells on autoimmune diseases, cardiovascular diseases, and/or hematological diseases” (GWO XI STEM CELL APPLIED TECHNOLOGY CO., LTD., priority 2014, dated 2016).

Columns and labels:
Assay type in all cases: cell-based
CXCR4 = test: RT-PCR gene expression of CXCR4 in ligustilide-treated ADSCs; conditions: for CXCR4 expression level (Image J): ADSCs, 24 hours
Method: (§1) ADSCs were cultured in the K-SFM as prepared in Example 1 at 37° C. in 5% CO2. The ADSCs were divided into […], and each group was treated with different concentrations (0, 0.625, 1.25, 2.5, 5 and 10 μg/ml) of (Z)-ligustilide for 24 hours, respectively.
(§2) The culture medium were removed from each group of stem cells in Experiment (1), then 1 ml of TRIzol reagent (Invitrogen) was added into each well and incubated at room temperature for 5 minutes. The stem cells were scraped by using a spatula and placed into a 1.5 ml microtube. Then, the cells were lysed completely, and 0.2 ml of trichloromethane (CHCl3) was added into the microtube. The microtube was shaken up and down for 15 seconds and incubated at room temperature for 2 to 3 minutes. The mixture was centrifuged (at 12000 g for 15 minutes at 4° C.). The supernatant was transferred into another 1.5 ml microtube, and 0.5 ml of isopropanol was added therein and mixed completely. The mixture was incubated at room temperature for 10 minutes and then centrifuged (at 12000 g for 10 minutes at 4° C.). The supernatant was removed. The remained sediment was washed with 1 ml of 75% ethanol-containing DEPC water (i.e. diethylpyrocarbonate-treated H2O) and centrifuged (7500 g at 4° C. for 5 minutes) again. The supernatant was removed. The remained sediment was dried by vacuum-pumping. The dried sediment was dissolved in about 0.01 ml to 0.02 ml of DEPC water to obtain total RNA of ADSCs of experimental group and blank group, respectively. The absorbance at a wavelength of 260 nm (OD260) of the samples were determined by a spectrophotometer (DU-800, Beckman) to evaluate the concentration of RNA. Then, the RNA was stored at −80° C. and used in the following Experiment (3).
(§3) The effects of ligustilide on increasing the expression of differentiation-promoting genes (e.g., BDNF and NURR1), increasing the expression of homing-promoting genes (e.g., CXCR4 and SDF1αβ), and decreasing the expression of inflammatory genes (e.g., IL-6 and IL-8) was analyzed by reverse transcription polymerase chain reaction (RT-PCR), wherein the gene expression of glyceraldehyde 3-phosphate dehydrogenase (GAPDH) was served as a control group, and the steps were described as follows.
(§4) The total RNA provided in the above Experiment (2) was reverse transcribed into cDNA. 2.5 μl of each primer (10 pM) shown in Table 1A, 7.5 μl of ddH2O, and 12.5 μl of EconoTaq® PLUS GREEN 2X Master Mix (Lucigen, Middleton, Wis., USA) were mixed with 2.5 μl of the cDNA. The mixture was placed in a RT-PCR machine. The reaction conditions were set as follows: i) 94° C. for 30 seconds, 55° C. for 30 seconds, and […], with 30 cycles of the aforesaid steps; ii) 72° C. for 10 minutes; and iii) cooling to 4° C. to stop the reaction
(§5) The obtained RT-PCR product was analyzed by 1.5% agarose gel electrophoresis for 30 minutes (voltage: 100 volts (V)). Then, the gel was placed in and stained with ethidium bromide (EtBr) for 10 minutes, and photographed by a gel image documentation system (DOC PRINT DP-001FDC, VilberLourmat France).

NURR1 = test: RT-PCR gene expression of NURR1 in ligustilide-treated ADSCs; conditions: for NURR1 expression level (Image J): ADSCs, 24 hours
Method: as §1, §2, §3, §4, §5

BDNF = test: RT-PCR gene expression of BDNF in ligustilide-treated ADSCs; conditions: for BDNF expression level (Image J): ADSCs, 24 hours
Method: as §1, §2, §3, §4, §5

IL-6 = test: RT-PCR gene expression of IL-6 in ligustilide-treated ADSCs; conditions: for IL-6 expression level (Image J): ADSCs, 24 hours
Method: as §1, §2, §3, §4, §5

IL-8 = test: RT-PCR gene expression of IL-8 in ligustilide-treated ADSCs; conditions: for IL-8 expression level (Image J): ADSCs, 24 hours
Method: as §1, §2, §3, §4, §5

SDF1αβ = test: RT-PCR gene expression of SDF1αβ in ligustilide-treated ADSCs; conditions: for SDF1αβ expression level (Image J): ADSCs, 24 hours
Method: as §1, §2, §3, §4, §5

[1] = ADSCs treated with ligustilide, compared to GAPDH control, in words

For `CCC/C=C1\OC(=O)C2=C1CCC=C2` [ligustilide, (Z)-ligustilide], the “gene expression level of CXCR4” value (CXCR4; [1]) was “increased”, the “CXCR4 expression level (Image J)” value (CXCR4; 0.625 μg/ml ligustilide) was 2744.11 and the “CXCR4 expression level (Image J)” value (CXCR4; 1.25 μg/ml ligustilide) was 3719.23. For the same compound, the “CXCR4 expression level (Image J)” value (CXCR4; 2.5 μg/ml ligustilide) was 6539.03, the “CXCR4 expression level (Image J)” value (CXCR4; 5 μg/ml ligustilide) was 4138.77 and the “gene expression level of NURR1” value (NURR1; [1]) was “increased”. For the same compound, the “NURR1 expression level (Image J)” value (NURR1; 0.625 μg/ml ligustilide) was 0.00, the “NURR1 expression level (Image J)” value (NURR1; 1.25 μg/ml ligustilide) was 0.00 and the “NURR1 expression level (Image J)” value (NURR1; 2.5 μg/ml ligustilide) was 6694.43. For the same compound, the “NURR1 expression level (Image J)” value (NURR1; 5 μg/ml ligustilide) was 3360.55, the “gene expression level of BDNF” value (BDNF; [1]) was “increased” and the “BDNF expression level (Image J)” value (BDNF; 0.625 μg/ml ligustilide) was 5411.77. For the same compound, the “BDNF expression level (Image J)” value (BDNF; 1.25 μg/ml ligustilide) was 4915.77, the “BDNF expression level (Image J)” value (BDNF; 2.5 μg/ml ligustilide) was 7069.72 and the “BDNF expression level (Image J)” value (BDNF; 5 μg/ml ligustilide) was 5083.65. For the same compound, the “gene expression level of IL-6” value (IL-6; [1]) was “decreased”, the “IL-6 expression level (Image J)” value (IL-6; 0.625 μg/ml ligustilide) was 7756.00 and the “IL-6 expression level (Image J)” value (IL-6; 1.25 μg/ml ligustilide) was 8204.13. The “IL-6 expression level (Image J)” value (IL-6; 2.5 μg/ml ligustilide) was 5629.93, the “IL-6 expression level (Image J)” value (IL-6; 5 μg/ml ligustilide) was 2804.03 and the “gene expression level of IL-8” value (IL-8; [1]) was “decreased”. The “IL-8 expression level (Image J)” value (IL-8; 0.625 μg/ml ligustilide) was 6102.10, the “IL-8 expression level (Image J)” value (IL-8; 1.25 μg/ml ligustilide) was 9691.71 and the “IL-8 expression level (Image J)” value (IL-8; 2.5 μg/ml ligustilide) was 5840.23. For the same compound, the “IL-8 expression level (Image J)” value (IL-8; 5 μg/ml ligustilide) was 3487.33, the “gene expression level of SDF1αβ” value (SDF1αβ; [1]) was “increased” and the “SDF1αβ expression level (Image J)” value (SDF1αβ; 0.625 μg/ml ligustilide) was 6766.31. For the same compound, the “SDF1αβ expression level (Image J)” value (SDF1αβ; 1.25 μg/ml ligustilide) was 4065.23, the “SDF1αβ expression level (Image J)” value (SDF1αβ; 2.5 μg/ml ligustilide) was 4791.36 and the “SDF1αβ expression level (Image J)” value (SDF1αβ; 5 μg/ml ligustilide) was 5767.31.
